# Experiments:
# [1] = test system: adult patients with secondary generalized epilepsy; details: of eight adult patients with secondary generalized epilepsy; cited from earlier work
# mice = details: after administration of pro-convulsant drugs or an electric current; cited from earlier work
# [2] = test system: subjects with SWS brain involvement and refractory epilepsy; assay: Expanded access compassionate use program of CBD in Sturge Weber syndrome: seizure frequency and quality of life; assay type: in vivo, human; details: for Week 14 (number of seizures): CBD target dose 15-25 mg/kg/day; for Decrease in seizure frequency (%): week 14 versus baseline
# Procedure: “Percentage decrease in seizure frequency” is defined as the number of seizures at week 14 minus the number of seizures at baseline divided by the number of seizures at baseline multiplied by 100.
# Four subjects with SWS brain involvement and refractory epilepsy were enrolled in an expanded access compassionate use program for CBD. These subjects were treated with a highly purified extract of cannabidiol (CBD) obtained from a cannabis plant. Frequency of seizures was recorded at each visit, as were reported quality of life changes, including mood, behaviour, and cognitive function.
# Data were compared in the 56-day pre-treatment period, the 56-day period after starting maintenance dose (Week 14), and at most recent visit.
# The participants in the study were taking at the time of entry into the study between one and four concomitant AEDs.
# Patient 1 was taking leviteracetam alone. Patient 2 was taking leviteracetam, valproate, felbamate and clobazam. Patient 3 was taking valproate and topiramate. Patient 4 was taking oxycarbamazepine and lacosamide.
# CBD was administered at a target dose of 15-25 mg/kg/day.
# All patients entered a baseline period of 14 weeks when parents/caregivers kept prospective seizure diaries, noting all countable seizure types.
# Laboratory testing for hematologic, liver, kidney function and concomitant AED levels was performed at baseline, and after every 4 weeks of CBD therapy.
# adult patients = details: 200 mg/day of pure CBD, four adult patients; cited from earlier work
# [3] = test system: institutionalized adult patients; details: 200 mg/day of pure CBD, twelve institutionalized adult patients, open label; cited from earlier work
# [4] = test system: multiple species and models; details: previous studies in animals; cited from earlier work
# Dravet syndrome = details: treatment of Dravet syndrome, announced March 2016; cited from earlier work
# [5] = in vivo; cited from earlier work
structure (smiles),measurement,setting,value
"C=C(C)[C@@H]1CCC(C)=C[C@H]1c1c(O)cc(CCCCC)cc1O [CBD, Cannabidiol]",number of patients with a marked reduction of seizures,[1],4
same,prevention of seizures,mice,able to prevent seizures
same,Week 14 (number of seizures),"[2]; Patient 1, concomitant leviteracetam alone, baseline 67 seizures",60 number of seizures
same,Decrease in seizure frequency (%),"[2]; Patient 1, concomitant leviteracetam alone",10%
same,Week 14 (number of seizures),"[2]; Patient 2, concomitant leviteracetam, valproate, felbamate and clobazam, baseline 6 seizures",1 number of seizures
same,Decrease in seizure frequency (%),"[2]; Patient 2, concomitant leviteracetam, valproate, felbamate and clobazam",83%
same,Week 14 (number of seizures),"[2]; Patient 3, concomitant valproate and topiramate, baseline 10 seizures",1 number of seizures
same,Decrease in seizure frequency (%),"[2]; Patient 3, concomitant valproate and topiramate",90%
same,Week 14 (number of seizures),"[2]; Patient 4, concomitant oxycarbamazepine and lacosamide, baseline 6 seizures",4 number of seizures
same,Decrease in seizure frequency (%),"[2]; Patient 4, concomitant oxycarbamazepine and lacosamide",33%
same,effectiveness in the treatment of SWS,[2]; conclusion from the four patients,effective
same,reported quality of life,[2]; patient 1,remained unchanged
same,reported quality of life,"[2]; three of the four patients (patients 2, 3 and 4)",improved quality of life
same,cognitive function,"[2]; three subjects (patients 2, 3 and 4)",improvements in cognitive function
same,share of patients who benefited from a reduction in the number of seizures,"[2]; treatment-resistant SWS patients, four subjects",three quarters
same,mood and behaviour,[2]; two subjects (patient 2 and 3),improvements in mood and behaviour
same,patients who became seizure free,adult patients,two of the four patients
same,seizure frequency in the remainder of the patients,adult patients,unchanged
same,control of seizures,[3],ineffective
same,anticonvulsant efficacy,[4],anticonvulsant efficacy in multiple species and models
same,outcome of the Phase 3 study,Dravet syndrome,positive results
"CCCCCc1cc(O)c2c(c1)OC(C)(C)[C@@H]1CCC(C)=C[C@@H]21 [THC, Tetrahydrocannabinol]",effect on convulsions,[5],pro-convulsant

# Reference: patent US10583096B2, “Use of cannabinoids in the treatment of epilepsy” (GW Research Limited, priority 2016, dated 2020)
